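The compound was tested at five concentrations on cells cultured in 96-well plates, with a 48-hour exposure period. GI50: concentration for 50% inhibition of growth. The concentration for full growth arrest is given as TGI.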
What was measured:
Assay in all cases: growth of human tumour cells (NCI), 48 h
786-0 renal = tested on: 786-0 renal
A498 renal = tested on: A498 renal
A549 NSCLC = tested on: A549 NSCLC
ACHN renal = tested on: ACHN renal
BT-549 breast = tested on: BT-549 breast
CAKI-1 renal = tested on: CAKI-1 renal
CCRF-CEM leukemia = tested on: CCRF-CEM leukemia
COLO 205 colon = tested on: COLO 205 colon
DU-145 prostate = tested on: DU-145 prostate
EKVX NSCLC = tested on: EKVX NSCLC
HCC-2998 colon = tested on: HCC-2998 colon
HCT-116 colon = tested on: HCT-116 colon
HCT-15 colon = tested on: HCT-15 colon
HL-60(TB) leukemia = tested on: HL-60(TB) leukemia
HOP-62 NSCLC = tested on: HOP-62 NSCLC
HOP-92 NSCLC = tested on: HOP-92 NSCLC
HS 578T breast = tested on: HS 578T breast
HT29 colon = tested on: HT29 colon
IGROV1 ovarian = tested on: IGROV1 ovarian
K-562 leukemia = tested on: K-562 leukemia
KM12 colon = tested on: KM12 colon
LOX IMVI melanoma = tested on: LOX IMVI melanoma
M14 melanoma = tested on: M14 melanoma
MALME-3M melanoma = tested on: MALME-3M melanoma
MCF7 breast = tested on: MCF7 breast
MDA-MB-231 breast = tested on: MDA-MB-231 breast
MDA-MB-435 = tested on: MDA-MB-435
MOLT-4 leukemia = tested on: MOLT-4 leukemia
NCI-H226 lung = tested on: NCI-H226 lung
NCI-H23 lung = tested on: NCI-H23 lung
NCI-H460 lung = tested on: NCI-H460 lung
NCI-H522 lung = tested on: NCI-H522 lung
NCI/ADR-RES ovarian = tested on: NCI/ADR-RES ovarian
OVCAR-3 ovarian = tested on: OVCAR-3 ovarian
OVCAR-4 ovarian = tested on: OVCAR-4 ovarian
OVCAR-5 ovarian = tested on: OVCAR-5 ovarian
OVCAR-8 ovarian = tested on: OVCAR-8 ovarian
PC-3 prostate = tested on: PC-3 prostate
RPMI-8226 leukemia = tested on: RPMI-8226 leukemia
RXF 393 renal = tested on: RXF 393 renal
SF-268 CNS = tested on: SF-268 CNS
SF-295 CNS = tested on: SF-295 CNS
SF-539 CNS = tested on: SF-539 CNS
SK-MEL-2 melanoma = tested on: SK-MEL-2 melanoma
SK-MEL-28 melanoma = tested on: SK-MEL-28 melanoma
SK-MEL-5 melanoma = tested on: SK-MEL-5 melanoma
SK-OV-3 ovarian = tested on: SK-OV-3 ovarian
SN12C renal = tested on: SN12C renal
SNB-19 CNS = tested on: SNB-19 CNS
SNB-75 CNS = tested on: SNB-75 CNS
SR leukemia = tested on: SR leukemia
SW-620 colon = tested on: SW-620 colon
T-47D breast = tested on: T-47D breast
TK-10 renal = tested on: TK-10 renal
U251 CNS = tested on: U251 CNS
UACC-257 melanoma = tested on: UACC-257 melanoma
UACC-62 melanoma = tested on: UACC-62 melanoma
UO-31 renal = tested on: UO-31 renal

## O=C(Nc1nc2ccccc2s1)Nc1ccc([N+](=O)[O-])cc1Cl
786-0 renal
  GI50: 1.92 µM
  TGI: 3.7 µM
A498 renal
  GI50: 5.15 µM
  TGI: 12.5 µM
A549 NSCLC
  GI50: 2.17 µM
  TGI: 5.7 µM
ACHN renal
  GI50: 6.53 µM
  TGI: 18 µM
BT-549 breast
  GI50: 2.04 µM
  TGI: 7.68 µM
CAKI-1 renal
  GI50: 6.25 µM
  TGI: 16.2 µM
CCRF-CEM leukemia
  GI50: 2.52 µM
  TGI: > 49.4 µM
COLO 205 colon
  GI50: 10.3 µM
  TGI: 32.9 µM
DU-145 prostate
  GI50: 3.08 µM
  TGI: 7.74 µM
EKVX NSCLC
  GI50: 11 µM
  TGI: 45.1 µM
HCC-2998 colon
  GI50: 5.65 µM
  TGI: 25 µM
HCT-116 colon
  GI50: 2.12 µM
  TGI: 4.54 µM
HCT-15 colon
  GI50: 3.05 µM
  TGI: 13 µM
HL-60(TB) leukemia
  GI50: 15.2 µM
  TGI: > 54.7 µM
HOP-62 NSCLC
  GI50: 7.61 µM
  TGI: 16.6 µM
HOP-92 NSCLC
  GI50: 3.81 µM
  TGI: 11.7 µM
HS 578T breast
  GI50: 3.98 µM
  TGI: > 20.8 µM
HT29 colon
  GI50: 7.3 µM
  TGI: 21.9 µM
IGROV1 ovarian
  GI50: 4.71 µM
  TGI: 10.4 µM
K-562 leukemia
  GI50: 3.48 µM
  TGI: > 100 µM
KM12 colon
  GI50: 2.82 µM
  TGI: 8.48 µM
LOX IMVI melanoma
  GI50: 2.66 µM
  TGI: 6.7 µM
M14 melanoma
  GI50: 7.15 µM
  TGI: 20.7 µM
MALME-3M melanoma
  GI50: 2.82 µM
  TGI: 11.1 µM
MCF7 breast
  GI50: 2.55 µM
  TGI: 9.72 µM
MDA-MB-231 breast
  GI50: 3.21 µM
  TGI: 8.59 µM
MDA-MB-435
  GI50: 3.56 µM
  TGI: 14.2 µM
MOLT-4 leukemia
  GI50: 5.92 µM
  TGI: > 47.4 µM
NCI-H226 lung
  GI50: 5.58 µM
  TGI: 13.1 µM
NCI-H23 lung
  GI50: 3.49 µM
  TGI: 14.6 µM
NCI-H460 lung
  GI50: 2.42 µM
  TGI: 6.81 µM
NCI-H522 lung
  GI50: 2.74 µM
  TGI: 10.2 µM
NCI/ADR-RES ovarian
  GI50: 2.99 µM
  TGI: 9.93 µM
OVCAR-3 ovarian
  GI50: 3.05 µM
  TGI: 8.17 µM
OVCAR-4 ovarian
  GI50: 1.86 µM
  TGI: 3.68 µM
OVCAR-5 ovarian
  GI50: 10.4 µM
  TGI: 25.7 µM
OVCAR-8 ovarian
  GI50: 2.13 µM
  TGI: 4.99 µM
PC-3 prostate
  GI50: 4.26 µM
  TGI: > 28.8 µM
RPMI-8226 leukemia
  GI50: 2.19 µM
  TGI: > 21 µM
RXF 393 renal
  GI50: 1.59 µM
  TGI: 3.28 µM
SF-268 CNS
  GI50: 4.49 µM
  TGI: 18.6 µM
SF-295 CNS
  GI50: 3.31 µM
  TGI: 15.8 µM
SF-539 CNS
  GI50: 1.69 µM
  TGI: 3.11 µM
SK-MEL-2 melanoma
  GI50: 12.7 µM
  TGI: 26.9 µM
SK-MEL-28 melanoma
  GI50: 6.25 µM
  TGI: 20.1 µM
SK-MEL-5 melanoma
  GI50: 7.3 µM
  TGI: 22.1 µM
SK-OV-3 ovarian
  GI50: 8.52 µM
  TGI: 22.2 µM
SN12C renal
  GI50: 4.36 µM
  TGI: 9.53 µM
SNB-19 CNS
  GI50: 8.2 µM
  TGI: 26.7 µM
SNB-75 CNS
  GI50: 1.87 µM
  TGI: 5.36 µM
SR leukemia
  GI50: 3.31 µM
  TGI: > 100 µM
SW-620 colon
  GI50: 2.86 µM
  TGI: 7.82 µM
T-47D breast
  GI50: 2.86 µM
  TGI: 11.7 µM
TK-10 renal
  GI50: 3.18 µM
  TGI: 7.87 µM
U251 CNS
  GI50: 2.13 µM
  TGI: 4.75 µM
UACC-257 melanoma
  GI50: 5.62 µM
  TGI: 14.2 µM
UACC-62 melanoma
  GI50: 3.1 µM
  TGI: 8.94 µM
UO-31 renal
  GI50: 2.24 µM
  TGI: 6.44 µM

## CO[C@H]1C[C@@H]2CC[C@@H](C)[C@@](O)(O2)C(=O)C(=O)N2CCCC[C@H]2C(=O)O[C@H]([C@H](C)C[C@@H]2CC[C@@H](OCCO)[C@H](OC)C2)CC(=O)[C@H](C)C=C(C)[C@@H](O)[C@@H](OC)C(=O)[C@H](C)C[C@H](C)/C=C/C=C/C=C1C
786-0 renal
  GI50: < 0.01 µM
  TGI: 20.7 µM
A498 renal
  GI50: < 0.01 µM
  TGI: 16.3 µM
A549 NSCLC
  GI50: < 0.01 µM
  TGI: 22.3 µM
ACHN renal
  GI50: < 0.01 µM
  TGI: 18.8 µM
BT-549 breast
  GI50: < 0.01 µM
CAKI-1 renal
  TGI: 21 µM
CCRF-CEM leukemia
  TGI: > 43.1 µM
COLO 205 colon
  GI50: 12.3 µM
  TGI: 30.1 µM
DU-145 prostate
  TGI: 16.5 µM
EKVX NSCLC
  GI50: < 0.01 µM
  TGI: 21.5 µM
HCC-2998 colon
  GI50: 4.48 µM
  TGI: 22.1 µM
HCT-116 colon
  GI50: 3.43 µM
  TGI: 18.9 µM
HCT-15 colon
  GI50: < 0.0115 µM
  TGI: 18.5 µM
HL-60(TB) leukemia
  GI50: 8.63 µM
  TGI: 38.4 µM
HOP-62 NSCLC
  GI50: < 0.01 µM
  TGI: 19.2 µM
HOP-92 NSCLC
  GI50: 0.0199 µM
  TGI: 20 µM
HS 578T breast
  GI50: < 0.01 µM
HT29 colon
  GI50: 2.55 µM
  TGI: 21.1 µM
IGROV1 ovarian
  GI50: < 0.01 µM
  TGI: 17 µM
K-562 leukemia
  GI50: 2.41 µM
  TGI: 31.4 µM
KM12 colon
  GI50: 1.18 µM
  TGI: 21.2 µM
LOX IMVI melanoma
  GI50: < 0.01 µM
  TGI: 17.8 µM
M14 melanoma
  GI50: 3.12 µM
  TGI: 20.5 µM
MALME-3M melanoma
  GI50: < 0.01 µM
MCF7 breast
  GI50: < 0.01 µM
  TGI: 14 µM
MDA-MB-231 breast
  GI50: 11.6 µM
  TGI: 35.4 µM
MDA-MB-435
  GI50: < 0.0332 µM
  TGI: 22.1 µM
MOLT-4 leukemia
  TGI: 20.3 µM
NCI-H226 lung
  TGI: 23.5 µM
NCI-H23 lung
  TGI: 22.7 µM
NCI-H460 lung
  TGI: 19.4 µM
NCI-H522 lung
  TGI: 17.7 µM
NCI/ADR-RES ovarian
  GI50: 3.26 µM
  TGI: 31.7 µM
OVCAR-3 ovarian
  GI50: < 0.01 µM
  TGI: 16.7 µM
OVCAR-4 ovarian
  GI50: < 0.0124 µM
  TGI: 17.1 µM
OVCAR-5 ovarian
  GI50: < 0.01 µM
  TGI: 20.3 µM
OVCAR-8 ovarian
  TGI: 29.5 µM
PC-3 prostate
  GI50: < 0.01 µM
  TGI: 16.7 µM
RPMI-8226 leukemia
  GI50: < 0.01 µM
  TGI: 14.1 µM
RXF 393 renal
  GI50: < 0.01 µM
SF-268 CNS
  GI50: 0.269 µM
  TGI: 21.1 µM
SF-295 CNS
  GI50: < 0.01 µM
  TGI: 17.3 µM
SF-539 CNS
  GI50: < 0.01 µM
  TGI: 15.3 µM
SK-MEL-2 melanoma
  TGI: 21.4 µM
SK-MEL-28 melanoma
  GI50: 11.3 µM
  TGI: 24.5 µM
SK-MEL-5 melanoma
  GI50: 1.75 µM
  TGI: 18.1 µM
SK-OV-3 ovarian
  GI50: < 0.01 µM
  TGI: 20.5 µM
SN12C renal
  GI50: 1.82 µM
  TGI: 31.1 µM
SNB-19 CNS
  TGI: 19.5 µM
SNB-75 CNS
  GI50: < 0.01 µM
  TGI: 14.1 µM
SR leukemia
  GI50: < 0.01 µM
  TGI: 10.2 µM
SW-620 colon
  GI50: 8.49 µM
  TGI: 23.9 µM
T-47D breast
  GI50: < 0.01 µM
  TGI: 21.5 µM
TK-10 renal
  GI50: < 0.01 µM
  TGI: 19.1 µM
U251 CNS
  GI50: < 0.0108 µM
  TGI: 18.1 µM
UACC-257 melanoma
  GI50: 5.88 µM
  TGI: 22.2 µM
UACC-62 melanoma
  GI50: 0.342 µM
  TGI: 19.9 µM
UO-31 renal
  GI50: < 0.01 µM
  TGI: 14.5 µM

— PubChem BioAssay (NCI)
